These results are taken from publication PMC8550792, “Evolution of kinase polypharmacology across HSP90 drug discovery” (Cell Chemical Biology, 2021).

Structures are written as SMILES.

Assay in all cases: biochemical
Common to all, as to format: biochemical

Test [1] has as its target T1, 382 unique human kinases (Homo sapiens, UniProt Q13043).
T1 construct: purchased Reaction Biology (HotSpot contract assay)
T1 sequence (Q13043 1-487): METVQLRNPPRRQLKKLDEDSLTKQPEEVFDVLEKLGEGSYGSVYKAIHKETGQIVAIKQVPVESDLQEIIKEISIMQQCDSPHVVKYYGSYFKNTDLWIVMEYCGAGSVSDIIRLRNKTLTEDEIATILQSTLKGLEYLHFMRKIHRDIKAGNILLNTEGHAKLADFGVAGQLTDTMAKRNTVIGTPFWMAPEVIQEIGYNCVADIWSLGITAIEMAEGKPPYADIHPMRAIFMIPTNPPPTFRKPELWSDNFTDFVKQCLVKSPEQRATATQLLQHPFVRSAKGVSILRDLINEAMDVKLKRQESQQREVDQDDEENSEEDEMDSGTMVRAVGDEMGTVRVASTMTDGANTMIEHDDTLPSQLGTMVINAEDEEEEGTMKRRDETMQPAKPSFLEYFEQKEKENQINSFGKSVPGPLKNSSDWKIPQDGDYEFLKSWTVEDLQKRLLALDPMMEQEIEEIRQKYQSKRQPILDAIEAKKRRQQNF
The settings on record: MST1/STK4, 10 uM; for remaining activity at 10 µM: read-out: % Enzyme Activity (relative to DMSO controls).

Test [2] has as its target T2, 382 unique human kinases (Homo sapiens, UniProt P07949, V804M).
T2 construct: purchased Reaction Biology (HotSpot contract assay)
The settings on record: RET (V804M), 10 uM; for remaining activity at 10 µM: read-out: % Enzyme Activity (relative to DMSO controls).

Test [3] deals with T3, 382 unique human kinases (Homo sapiens, UniProt Q9BYT3).
T3 construct: purchased Reaction Biology (HotSpot contract assay)
The conditions noted are these: kinase STK33, compound 10 uM; for remaining activity at 10 µM: read-out: % Enzyme Activity (relative to DMSO controls).

The target of test [4] is T4, 382 unique human kinases (Homo sapiens, UniProt O15264).
T4 construct: purchased Reaction Biology (HotSpot contract assay)
T4 sequence (O15264 1-365): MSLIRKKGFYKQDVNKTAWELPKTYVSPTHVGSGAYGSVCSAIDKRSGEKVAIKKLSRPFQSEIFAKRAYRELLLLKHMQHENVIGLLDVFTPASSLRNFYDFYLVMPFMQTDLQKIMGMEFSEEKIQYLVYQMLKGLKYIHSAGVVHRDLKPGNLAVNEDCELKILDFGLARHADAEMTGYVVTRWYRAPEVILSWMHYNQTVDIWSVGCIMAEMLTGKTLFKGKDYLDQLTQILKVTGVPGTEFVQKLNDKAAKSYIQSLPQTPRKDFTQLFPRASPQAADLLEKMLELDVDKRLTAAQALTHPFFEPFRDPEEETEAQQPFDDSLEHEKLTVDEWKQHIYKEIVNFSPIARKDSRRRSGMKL
The conditions noted are these: P38d/MAPK13, 10 uM; for remaining activity at 10 µM: read-out: % Enzyme Activity (relative to DMSO controls).

Test [5] addresses T5, 382 unique human kinases (Homo sapiens, UniProt Q6VAB6).
T5 sequence (Q6VAB6 1-950): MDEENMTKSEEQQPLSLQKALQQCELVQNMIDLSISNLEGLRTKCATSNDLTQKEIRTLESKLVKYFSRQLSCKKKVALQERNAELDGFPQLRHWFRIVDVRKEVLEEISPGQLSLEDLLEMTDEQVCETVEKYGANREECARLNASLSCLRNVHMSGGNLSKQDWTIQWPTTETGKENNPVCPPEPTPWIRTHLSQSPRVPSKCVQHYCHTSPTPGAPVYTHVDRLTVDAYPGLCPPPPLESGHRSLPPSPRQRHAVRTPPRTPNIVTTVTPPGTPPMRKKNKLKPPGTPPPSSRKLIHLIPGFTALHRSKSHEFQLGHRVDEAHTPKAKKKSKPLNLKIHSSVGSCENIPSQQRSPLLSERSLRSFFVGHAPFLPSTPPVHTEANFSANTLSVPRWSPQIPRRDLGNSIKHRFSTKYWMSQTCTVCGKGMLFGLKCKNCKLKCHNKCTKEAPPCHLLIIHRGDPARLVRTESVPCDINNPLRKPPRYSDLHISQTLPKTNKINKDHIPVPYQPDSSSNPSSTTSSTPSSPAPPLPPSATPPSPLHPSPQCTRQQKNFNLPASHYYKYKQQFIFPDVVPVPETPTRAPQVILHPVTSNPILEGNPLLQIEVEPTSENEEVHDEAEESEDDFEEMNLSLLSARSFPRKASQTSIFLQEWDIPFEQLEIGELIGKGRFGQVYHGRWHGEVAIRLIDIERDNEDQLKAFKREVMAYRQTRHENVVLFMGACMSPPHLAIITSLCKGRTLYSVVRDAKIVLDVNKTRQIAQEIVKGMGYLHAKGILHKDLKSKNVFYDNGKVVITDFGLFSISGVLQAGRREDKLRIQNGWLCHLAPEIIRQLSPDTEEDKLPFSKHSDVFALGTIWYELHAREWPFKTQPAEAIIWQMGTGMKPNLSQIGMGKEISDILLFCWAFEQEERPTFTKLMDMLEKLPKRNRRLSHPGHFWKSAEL
The settings on record: KSR2, 10 uM; for remaining activity at 10 µM: read-out: % Enzyme Activity (relative to DMSO controls).

The target of test [6] is T6, 382 unique human kinases (Homo sapiens, UniProt P51957).
T6 construct: purchased Reaction Biology (HotSpot contract assay)
The conditions noted are these: NEK4, 10 uM; for remaining activity at 10 µM: read-out: % Enzyme Activity (relative to DMSO controls).

The target in test [7] is T7, 382 unique human kinases (Homo sapiens, UniProt P41743).
T7 construct: purchased Reaction Biology (HotSpot contract assay)
T7 sequence (P41743 1-596): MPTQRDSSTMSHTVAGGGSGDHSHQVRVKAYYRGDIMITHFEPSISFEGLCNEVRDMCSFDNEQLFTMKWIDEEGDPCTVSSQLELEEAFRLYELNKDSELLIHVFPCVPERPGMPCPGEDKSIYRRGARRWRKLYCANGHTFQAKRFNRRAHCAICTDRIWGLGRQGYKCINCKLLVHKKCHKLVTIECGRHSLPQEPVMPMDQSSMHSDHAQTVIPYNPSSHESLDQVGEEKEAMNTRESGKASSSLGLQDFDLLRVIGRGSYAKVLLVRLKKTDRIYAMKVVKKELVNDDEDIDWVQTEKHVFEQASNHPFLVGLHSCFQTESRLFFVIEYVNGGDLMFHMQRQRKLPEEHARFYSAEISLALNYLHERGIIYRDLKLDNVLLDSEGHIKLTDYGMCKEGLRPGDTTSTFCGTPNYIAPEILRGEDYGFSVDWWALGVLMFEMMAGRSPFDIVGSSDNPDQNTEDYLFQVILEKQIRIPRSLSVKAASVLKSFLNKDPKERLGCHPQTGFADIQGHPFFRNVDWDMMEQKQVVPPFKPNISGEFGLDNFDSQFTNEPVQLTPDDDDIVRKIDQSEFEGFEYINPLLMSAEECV
The settings on record: PKCiota, 10 uM; for remaining activity at 10 µM: read-out: % Enzyme Activity (relative to DMSO controls).

Test [8] concerns the target T8, 382 unique human kinases (Homo sapiens, UniProt Q16654).
T8 construct: purchased Reaction Biology (HotSpot contract assay)
The conditions noted are these: PDK4/PDKH4, [ATP] 30 µM.

Test [9] addresses T9, 382 unique human kinases (Homo sapiens, UniProt P54756).
T9 construct: purchased Reaction Biology (HotSpot contract assay)
The settings on record: EPHA5, [ATP] 30 µM, compound 10 uM; for remaining activity at 10 µM: read-out: % Enzyme Activity (relative to DMSO controls).

Where [10] appears, read: compound 10 uM, read-out: % Enzyme Activity (relative to DMSO controls).

T2 sequence (P07949 29-1114 V804M): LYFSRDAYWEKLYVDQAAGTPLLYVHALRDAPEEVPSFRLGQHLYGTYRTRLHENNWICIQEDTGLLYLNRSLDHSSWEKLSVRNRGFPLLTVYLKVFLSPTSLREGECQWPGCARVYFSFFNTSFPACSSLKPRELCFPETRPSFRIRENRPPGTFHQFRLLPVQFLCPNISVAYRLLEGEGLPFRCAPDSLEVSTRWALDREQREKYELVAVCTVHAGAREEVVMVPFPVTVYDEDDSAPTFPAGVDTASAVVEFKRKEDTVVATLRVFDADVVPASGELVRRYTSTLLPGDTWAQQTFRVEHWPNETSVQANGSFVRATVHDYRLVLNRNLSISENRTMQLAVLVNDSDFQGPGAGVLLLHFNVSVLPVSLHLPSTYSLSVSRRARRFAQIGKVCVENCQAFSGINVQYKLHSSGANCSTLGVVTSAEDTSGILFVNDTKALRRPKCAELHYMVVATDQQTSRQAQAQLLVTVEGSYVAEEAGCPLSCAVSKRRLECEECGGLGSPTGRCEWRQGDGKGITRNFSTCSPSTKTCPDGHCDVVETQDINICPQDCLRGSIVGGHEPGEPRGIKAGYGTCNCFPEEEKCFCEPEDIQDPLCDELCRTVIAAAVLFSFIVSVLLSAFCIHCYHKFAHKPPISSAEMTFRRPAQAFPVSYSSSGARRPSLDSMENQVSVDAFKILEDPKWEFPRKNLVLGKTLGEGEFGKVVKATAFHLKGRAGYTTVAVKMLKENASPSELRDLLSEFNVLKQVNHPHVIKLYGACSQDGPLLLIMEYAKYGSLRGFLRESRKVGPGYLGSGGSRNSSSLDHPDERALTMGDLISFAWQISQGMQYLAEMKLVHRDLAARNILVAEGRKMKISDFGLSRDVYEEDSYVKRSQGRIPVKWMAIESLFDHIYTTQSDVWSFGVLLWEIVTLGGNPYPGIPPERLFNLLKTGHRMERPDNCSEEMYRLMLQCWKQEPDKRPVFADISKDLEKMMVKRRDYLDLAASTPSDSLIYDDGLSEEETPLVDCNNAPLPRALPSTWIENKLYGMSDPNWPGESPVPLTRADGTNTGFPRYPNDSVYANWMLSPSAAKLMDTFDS
T9 sequence (P54756 25-1037): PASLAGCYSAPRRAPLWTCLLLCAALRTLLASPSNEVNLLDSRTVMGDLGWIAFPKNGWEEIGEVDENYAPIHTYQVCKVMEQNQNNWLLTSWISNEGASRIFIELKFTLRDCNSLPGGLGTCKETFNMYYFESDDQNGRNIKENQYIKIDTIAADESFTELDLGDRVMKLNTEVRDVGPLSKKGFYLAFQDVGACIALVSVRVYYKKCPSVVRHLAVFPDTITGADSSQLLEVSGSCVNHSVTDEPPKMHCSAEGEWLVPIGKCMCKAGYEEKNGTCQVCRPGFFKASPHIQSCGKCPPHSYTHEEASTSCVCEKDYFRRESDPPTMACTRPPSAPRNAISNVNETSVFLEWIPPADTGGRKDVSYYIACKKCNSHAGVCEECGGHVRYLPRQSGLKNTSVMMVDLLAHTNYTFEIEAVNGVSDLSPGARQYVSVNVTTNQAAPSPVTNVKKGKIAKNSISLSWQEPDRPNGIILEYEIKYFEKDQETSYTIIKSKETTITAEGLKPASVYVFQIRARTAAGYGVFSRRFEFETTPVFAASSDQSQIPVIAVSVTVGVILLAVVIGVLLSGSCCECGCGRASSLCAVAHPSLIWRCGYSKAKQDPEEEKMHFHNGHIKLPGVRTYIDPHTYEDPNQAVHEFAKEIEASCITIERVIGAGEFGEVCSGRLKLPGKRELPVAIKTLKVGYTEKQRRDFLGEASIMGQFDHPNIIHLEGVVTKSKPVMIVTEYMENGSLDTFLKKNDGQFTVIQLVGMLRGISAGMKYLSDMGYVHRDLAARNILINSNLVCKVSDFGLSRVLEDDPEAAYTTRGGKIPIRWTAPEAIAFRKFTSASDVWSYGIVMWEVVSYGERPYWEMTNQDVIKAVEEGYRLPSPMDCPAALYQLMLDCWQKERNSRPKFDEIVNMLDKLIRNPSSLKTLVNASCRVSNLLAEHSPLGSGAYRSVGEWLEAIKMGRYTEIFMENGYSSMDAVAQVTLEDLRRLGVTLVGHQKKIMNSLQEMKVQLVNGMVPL
T6 sequence (P51957 whole entry): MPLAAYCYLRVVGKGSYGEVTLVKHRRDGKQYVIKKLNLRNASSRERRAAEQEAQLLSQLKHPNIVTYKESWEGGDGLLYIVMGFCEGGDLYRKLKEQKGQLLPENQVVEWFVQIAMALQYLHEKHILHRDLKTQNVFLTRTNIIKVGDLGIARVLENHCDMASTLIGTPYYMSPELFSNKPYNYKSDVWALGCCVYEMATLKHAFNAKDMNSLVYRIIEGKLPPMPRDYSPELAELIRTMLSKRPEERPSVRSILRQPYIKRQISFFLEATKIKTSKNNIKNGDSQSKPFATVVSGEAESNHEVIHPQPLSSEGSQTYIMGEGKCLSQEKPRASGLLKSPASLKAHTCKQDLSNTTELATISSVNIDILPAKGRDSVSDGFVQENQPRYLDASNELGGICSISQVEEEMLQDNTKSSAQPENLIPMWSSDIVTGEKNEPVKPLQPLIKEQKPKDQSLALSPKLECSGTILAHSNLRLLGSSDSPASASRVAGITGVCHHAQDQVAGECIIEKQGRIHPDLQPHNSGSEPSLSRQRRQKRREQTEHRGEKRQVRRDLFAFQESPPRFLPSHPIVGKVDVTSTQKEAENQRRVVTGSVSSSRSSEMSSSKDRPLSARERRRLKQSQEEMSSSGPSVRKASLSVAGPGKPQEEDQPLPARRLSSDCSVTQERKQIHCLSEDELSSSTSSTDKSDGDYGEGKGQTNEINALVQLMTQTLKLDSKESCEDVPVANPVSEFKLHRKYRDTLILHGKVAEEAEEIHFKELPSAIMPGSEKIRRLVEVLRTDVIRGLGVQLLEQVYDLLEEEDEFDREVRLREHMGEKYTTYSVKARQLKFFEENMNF
T3 sequence (Q9BYT3 whole entry): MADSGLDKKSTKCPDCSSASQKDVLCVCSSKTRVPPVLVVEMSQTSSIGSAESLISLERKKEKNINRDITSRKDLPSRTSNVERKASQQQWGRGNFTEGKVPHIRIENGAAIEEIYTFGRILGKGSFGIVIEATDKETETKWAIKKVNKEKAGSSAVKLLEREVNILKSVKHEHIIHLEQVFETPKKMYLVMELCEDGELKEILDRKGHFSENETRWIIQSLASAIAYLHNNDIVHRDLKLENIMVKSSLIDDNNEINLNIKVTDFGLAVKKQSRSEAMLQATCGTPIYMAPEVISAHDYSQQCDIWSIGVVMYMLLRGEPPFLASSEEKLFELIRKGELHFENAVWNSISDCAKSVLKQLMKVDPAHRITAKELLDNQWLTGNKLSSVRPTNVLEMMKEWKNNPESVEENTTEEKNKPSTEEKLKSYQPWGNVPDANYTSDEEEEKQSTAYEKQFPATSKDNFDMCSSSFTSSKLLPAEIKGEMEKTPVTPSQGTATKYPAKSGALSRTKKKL
T8 sequence (Q16654 whole entry): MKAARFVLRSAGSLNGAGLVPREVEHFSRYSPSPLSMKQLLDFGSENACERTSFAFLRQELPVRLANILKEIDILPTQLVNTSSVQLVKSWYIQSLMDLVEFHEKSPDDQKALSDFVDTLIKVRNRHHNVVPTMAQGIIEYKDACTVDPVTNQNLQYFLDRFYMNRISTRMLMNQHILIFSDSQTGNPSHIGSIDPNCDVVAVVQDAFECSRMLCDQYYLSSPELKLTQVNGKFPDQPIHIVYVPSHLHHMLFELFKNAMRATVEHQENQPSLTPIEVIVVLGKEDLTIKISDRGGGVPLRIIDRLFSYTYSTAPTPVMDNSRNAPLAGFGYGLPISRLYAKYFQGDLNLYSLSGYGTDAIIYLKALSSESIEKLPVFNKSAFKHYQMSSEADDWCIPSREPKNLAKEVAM

As for `CC(C)c1cc(-c2n[nH]c(=O)n2-c2ccc3c(ccn3C)c2)c(O)cc1O` [Ganetespib (STA9090)], the remaining activity at 10 µM on 382 unique human kinases [1] came to 73.7%; on 382 unique human kinases [2], 81%; on 382 unique human kinases [3], 81.4%; at 382 unique human kinases [4], 83.5%.

As to `CC(C)c1cc(-c2n[nH]c(=O)n2-c2ccc3c(ccn3C)c2)c(O)cc1O` [Ganetespib], the remaining activity at 10 µM on 382 unique human kinases [5] was 94.1%; at 382 unique human kinases [6] it was 95.1%; at 382 unique human kinases [7], 94.9%; on 382 unique human kinases [8] (setting [10]), 6.83%; at 382 unique human kinases [9] it was 55.6%. Moreover, on 382 unique human kinases [8] (compound 1 uM, read-out: % Enzyme Activity (relative to DMSO controls)), the remaining activity at 1 µM was 26.8%.

In the case of `CCNC(=O)c1noc(-c2cc(C(C)C)c(O)cc2O)c1-c1ccc(CN2CCOCC2)cc1` [Luminespib (AUY-922)], the “% Enzyme Activity (relative to DMSO controls)” value is listed as 101.81% at 382 unique human kinases [1], 97.95% at 382 unique human kinases [2], 103.02% at 382 unique human kinases [3] and 86.84% on 382 unique human kinases [4]. Moreover, the remaining activity at 10 µM at 382 unique human kinases [1] stood at 103%; on 382 unique human kinases [2] it was 98.7%; at 382 unique human kinases [3] it was 104%; on 382 unique human kinases [4], 86.8%.

With `CCNC(=O)c1noc(-c2cc(C(C)C)c(O)cc2O)c1-c1ccc(CN2CCOCC2)cc1` [Luminespib], the “% Enzyme Activity (relative to DMSO controls)” value on 382 unique human kinases [5] stood at 96.02%; at 382 unique human kinases [6] it was 95.18%; at 382 unique human kinases [7] it was 94.98%; on 382 unique human kinases [8] (compound 10 uM), 27.75%; on 382 unique human kinases [9], 78.40%. The remaining activity at 10 µM at 382 unique human kinases [5] turned out to be 96.3%; on 382 unique human kinases [6], 95.4%; on 382 unique human kinases [7], 96%; at 382 unique human kinases [8] (setting [10]) it was 29.9%; on 382 unique human kinases [9] it was 79.4%.
